Results reported in ChEMBL document CHEMBL3600324, “Design, synthesis and evaluation of MCH receptor 1 antagonists--Part II: Optimization of pyridazines toward reduced phospholipidosis and hERG inhibition” (Bioorg Med Chem Lett, 2015).

How the values were obtained:
[1] = target: 5-hydroxytryptamine receptor 2A (Homo sapiens, UniProt P28223); test: Binding affinity to 5HT2A receptor (unknown origin)
[2] = target: T1, hERG (KCNH2) (Homo sapiens, UniProt Q12809); test: Inhibition of human ERG at 1 uM by patch clamp assay
T1 sequence (Q12809 whole entry): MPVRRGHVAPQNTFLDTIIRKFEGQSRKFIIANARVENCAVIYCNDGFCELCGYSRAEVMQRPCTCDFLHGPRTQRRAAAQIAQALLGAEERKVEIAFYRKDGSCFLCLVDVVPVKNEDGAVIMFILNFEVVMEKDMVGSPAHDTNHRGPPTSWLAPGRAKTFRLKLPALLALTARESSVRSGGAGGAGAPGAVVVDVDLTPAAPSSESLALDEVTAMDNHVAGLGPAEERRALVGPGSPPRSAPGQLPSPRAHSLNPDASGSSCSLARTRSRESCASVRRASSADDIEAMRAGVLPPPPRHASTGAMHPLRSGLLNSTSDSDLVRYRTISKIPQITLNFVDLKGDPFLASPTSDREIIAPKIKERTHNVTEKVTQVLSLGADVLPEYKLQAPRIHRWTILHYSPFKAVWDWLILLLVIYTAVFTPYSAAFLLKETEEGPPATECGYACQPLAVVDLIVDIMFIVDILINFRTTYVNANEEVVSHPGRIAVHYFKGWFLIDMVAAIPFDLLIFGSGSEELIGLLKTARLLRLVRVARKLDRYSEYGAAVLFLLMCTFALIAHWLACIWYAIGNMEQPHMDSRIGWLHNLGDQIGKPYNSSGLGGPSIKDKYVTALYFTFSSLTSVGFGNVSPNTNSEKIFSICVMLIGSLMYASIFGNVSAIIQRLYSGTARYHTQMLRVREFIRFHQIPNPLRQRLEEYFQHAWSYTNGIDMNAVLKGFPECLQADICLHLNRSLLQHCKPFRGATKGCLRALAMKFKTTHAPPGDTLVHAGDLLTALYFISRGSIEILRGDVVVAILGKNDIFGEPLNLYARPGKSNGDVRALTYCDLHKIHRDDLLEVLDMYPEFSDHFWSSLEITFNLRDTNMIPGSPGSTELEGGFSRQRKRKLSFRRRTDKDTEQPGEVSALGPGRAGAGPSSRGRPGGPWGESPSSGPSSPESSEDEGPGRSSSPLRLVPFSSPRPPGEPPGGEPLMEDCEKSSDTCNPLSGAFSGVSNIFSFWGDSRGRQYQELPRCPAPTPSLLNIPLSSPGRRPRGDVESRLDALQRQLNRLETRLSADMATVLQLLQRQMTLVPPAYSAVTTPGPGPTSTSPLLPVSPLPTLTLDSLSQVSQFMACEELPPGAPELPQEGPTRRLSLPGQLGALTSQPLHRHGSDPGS

[3] = target: T2, Muscarinic acetylcholine receptor M1 (Homo sapiens, UniProt P11229); test: Binding affinity to muscarinic M1 receptor (unknown origin)
T2 sequence (P11229 whole entry): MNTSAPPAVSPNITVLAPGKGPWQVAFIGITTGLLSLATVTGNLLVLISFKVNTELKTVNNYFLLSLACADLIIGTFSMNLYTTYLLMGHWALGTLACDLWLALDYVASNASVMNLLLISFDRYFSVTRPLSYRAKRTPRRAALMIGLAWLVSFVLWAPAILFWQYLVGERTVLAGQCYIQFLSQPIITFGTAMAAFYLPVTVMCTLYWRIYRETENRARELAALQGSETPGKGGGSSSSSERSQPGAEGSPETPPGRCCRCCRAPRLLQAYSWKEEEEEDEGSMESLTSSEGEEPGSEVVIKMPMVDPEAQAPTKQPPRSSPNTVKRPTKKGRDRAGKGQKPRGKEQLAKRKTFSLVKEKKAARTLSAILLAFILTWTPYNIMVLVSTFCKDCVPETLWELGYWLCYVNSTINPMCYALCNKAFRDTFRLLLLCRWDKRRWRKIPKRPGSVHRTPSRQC

[4] = test system: U-937; test: Toxicity in human U937 cells assessed as phospholipidosis first effect concentration by Nile red based fluorescence assay; type: cell-based
[5] = target: Melanin-concentrating hormone receptor 1 (Homo sapiens, UniProt Q99705); test: Displacement of [125I-MCH] from human MCH receptor 1 expressed in CHO cell membranes by scintillation counting method
Sequence of Melanin-concentrating hormone receptor 1 (Q99705 whole entry): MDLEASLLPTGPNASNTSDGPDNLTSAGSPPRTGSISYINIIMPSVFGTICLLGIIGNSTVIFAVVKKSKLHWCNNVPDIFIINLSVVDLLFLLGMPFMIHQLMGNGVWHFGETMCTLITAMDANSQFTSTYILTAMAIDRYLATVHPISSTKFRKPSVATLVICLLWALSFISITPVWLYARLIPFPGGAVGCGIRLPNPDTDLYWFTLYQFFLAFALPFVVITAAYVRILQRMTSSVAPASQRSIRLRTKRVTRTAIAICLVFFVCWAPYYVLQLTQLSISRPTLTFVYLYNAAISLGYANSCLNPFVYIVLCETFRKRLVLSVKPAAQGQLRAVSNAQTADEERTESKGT

[6] = Dissociation constant, pKa of the compound; type: physicochemical
[7] = test system: CHO; test: Selectivity index, ratio of IC50 for muscarinic M1 receptor (unknown origin) to IC50 for human MCH receptor 1 expressed in CHO cell membranes; type: cell-based
[8] = test system: CHO; test: Selectivity index, ratio of IC50 for 5HT2A receptor (unknown origin) to IC50 for human MCH receptor 1 expressed in CHO cell membranes; type: cell-based
[9] = Tmax in Wistar rat at 6.7 umol/kg, po; type: ADME, organism-based; details: in vivo
[10] = test system: Rattus norvegicus; test: AUC in Wistar rat at 6.7 umol/kg, po; type: ADME, organism-based; details: in vivo
[11] = test system: Rattus norvegicus; test: Dose normalized Cmax in Wistar rat at 6.7 umol/kg, po; type: ADME, organism-based; details: in vivo
[12] = Mean residence time in Wistar rat at 6.7 umol/kg, po; type: ADME, organism-based; details: in vivo
[13] = target: T1, hERG (KCNH2); test: Inhibition of human ERG at 10 uM by patch clamp assay
[14] = test system: Rattus norvegicus; test: AUC in Wistar rat at 10.9 umol/kg, po; type: ADME, organism-based; details: in vivo
[15] = target: Voltage-gated inwardly rectifying potassium channel KCNH2 (Homo sapiens, UniProt Q12809); test: Inhibition of human ERG by patch clamp assay
Sequence of Voltage-gated inwardly rectifying potassium channel KCNH2 (Q12809 whole entry): as the sequence (Q12809 whole entry) above

[16] = Mean residence time in Wistar rat at 10.9 umol/kg, po; type: ADME, organism-based; details: in vivo
[17] = Tmax in Wistar rat at 10.9 umol/kg, po; type: ADME, organism-based; details: in vivo
[18] = test system: Rattus norvegicus; test: Dose normalized Cmax in Wistar rat at 10.9 umol/kg, po; type: ADME, organism-based; details: in vivo
[19] = Tmax in Wistar rat at 11.9 umol/kg, po; type: ADME, organism-based; details: in vivo
[20] = test system: Rattus norvegicus; test: AUC in Wistar rat at 11.9 umol/kg, po; type: ADME, organism-based; details: in vivo
[21] = Mean residence time in Wistar rat at 11.9 umol/kg, po; type: ADME, organism-based; details: in vivo
[22] = test system: Rattus norvegicus; test: Dose normalized Cmax in Wistar rat at 11.9 umol/kg, po; type: ADME, organism-based; details: in vivo

Sequence of 5-hydroxytryptamine receptor 2A (P28223 whole entry): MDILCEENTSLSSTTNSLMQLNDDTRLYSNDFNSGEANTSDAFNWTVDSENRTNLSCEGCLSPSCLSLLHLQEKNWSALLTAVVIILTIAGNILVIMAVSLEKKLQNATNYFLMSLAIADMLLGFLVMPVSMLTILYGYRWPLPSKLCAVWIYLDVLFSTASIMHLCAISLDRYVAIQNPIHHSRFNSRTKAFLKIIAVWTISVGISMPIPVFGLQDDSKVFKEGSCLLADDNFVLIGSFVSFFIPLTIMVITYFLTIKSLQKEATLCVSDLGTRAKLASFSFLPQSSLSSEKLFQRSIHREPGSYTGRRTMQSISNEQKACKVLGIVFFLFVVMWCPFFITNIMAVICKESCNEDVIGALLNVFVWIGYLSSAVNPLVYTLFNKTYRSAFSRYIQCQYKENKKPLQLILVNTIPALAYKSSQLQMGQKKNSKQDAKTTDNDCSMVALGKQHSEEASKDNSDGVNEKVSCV

| SMILES | IC50 [1] [nM] | inhibition at 1 µM [2] [%] | IC50 [3] [nM] | Activity [4] [µM] | IC50 [5] [nM] | also measured |
| --- | --- | --- | --- | --- | --- | --- |
| OC1CCN(Cc2ccc(OCCCc3ccc(-c4ccc(Cl)cc4)nn3)cc2)CC1 | 1410 | 38 | > 10000 | 25 | – | – |
| COc1ccc(-c2ccc(CCCNc3ccc(CN4CCC(O)CC4)cc3)nn2)cc1 | 8820 | 10 | > 10000 | 50 | 20 | pKa [6]: 8.6 |
| Clc1ccc(-c2ccc(CCCNc3ccc(CN4CCCCC4)cc3)cc2)cc1 | 680 | 76 | 325 | – | 3 | Ratio IC50 [7]: 110; Ratio IC50 [8]: 230 |
| CN(CCCc1ccc(-c2ccc(Cl)cc2)cc1)c1ccc(CN2CCCCC2)cc1 | 646 | – | 419 | – | – | – |
| O=C(NCc1ccc(-c2ccc(Cl)cc2)cc1)Nc1ccc(CN2CCCCC2)cc1 | 29 | – | 511 | – | – | – |
| OCC1CCN(Cc2ccc(OCCCc3ccc(Oc4ccccc4)nn3)cc2)CC1 | > 10000 | 8 | 2110 | 100 | – | – |
| Fc1ccc(-c2ccc(CCCNc3ccc(CN4CCCCC4)cc3)nn2)cc1 | 34 | – | 3740 | – | – | – |
| COc1ccc(-c2ccc(CCCNc3ccc(CN4CCOCC4)cc3)nn2)cc1 | > 10000 | 5 | > 10000 | 12.5 | 20 | pKa [6]: 7.6 |
| O[C@@H]1CCCN(Cc2ccc(OCCCc3ccc(Oc4ccccc4)nn3)cc2)C1 | > 10000 | – | > 10000 | – | – | – |
| O=C(/C=C/c1ccc(-c2ccc(Cl)cc2)cc1)Nc1ccc(CN2CCCCC2)cc1 | 1930 | – | 401 | – | 16 | Ratio IC50 [7]: 25; Ratio IC50 [8]: 121 |
| OCC1CCN(Cc2ccc(OCCCc3ccc(-c4ccc(Cl)cc4)nn3)cc2)CC1 | 790 | – | 1650 | 12.5 | – | – |
| CC(=O)NC1CCN(Cc2ccc(OCCCc3ccc(Cc4ccccc4)nn3)cc2)CC1 | > 10000 | 13 | > 10000 | 100 | – | – |
| O[C@@H]1CCCN(Cc2ccc(OCCCc3ccc(-c4ccc(Cl)cc4)nn3)cc2)C1 | 595 | 13 | 5470 | 6.25 | 15 | – |
| O=C(C#Cc1ccc(-c2ccc(Cl)cc2)cc1)Nc1ccc(CN2CCCCC2)cc1 | – | – | 225 | – | – | – |
| COc1ccc(-c2ccc(CCCNc3ccc(CN(C)C)cc3)nn2)cc1 | 4580 | – | 1030 | – | – | – |
| Clc1ccc(-c2ccc(CCCNc3ccc(CN4CCCCC4)cc3)nn2)cc1 | 138 | 8 | 310 | 6.25 | 4 | – |
| OC1CCN(Cc2ccc(NCCCc3ccc(OCc4ccccc4)nn3)cc2)CC1 | > 10000 | 4 | > 10000 | 50 | 3 | – |
| CC(=O)NC1CCN(Cc2ccc(OCCCc3ccc(-c4ccc(F)cc4)nn3)cc2)CC1 | 713 | – | 4470 | 100 | 15 | – |
| CC(=O)NC1CCN(Cc2ccc(OCCCc3ccc(Oc4ccccc4)nn3)cc2)CC1 | 9650 | – | > 10000 | 100 | 10 | Tmax [9]: 0.8 h; AUC/dose [10]: 175 nM·h; Cmax/dose [11]: 531 nM; MRT [12]: 2.9 h; inhibition at 10 µM [13]: 13% |
| OC1CCN(Cc2ccc(NCCCc3ccc(Oc4ccccc4)nn3)cc2)CC1 | > 10000 | – | > 10000 | 50 | 24 | pKa [6]: 9.1; inhibition at 10 µM [13]: 35% |
| CC(=O)NC1CCN(Cc2ccc(NCCCc3ccc(Oc4ccccc4)nn3)cc2)CC1 | > 10000 | – | > 10000 | > 100 | – | AUC/dose [14]: 123 nM·h; IC50 [15]: > 10000 nM; MRT [16]: 6.4 h; Tmax [17]: 2.8 h; Cmax/dose [18]: 24 nM |
| COc1ccc(-c2ccc(CCCNc3ccc(CN4CCCC(O)C4)cc3)nn2)cc1 (stereo not drawn) | > 10000 | 10 | > 10000 | 25 | – | – |
| O=C(CCc1ccc(-c2ccc(Cl)cc2)cc1)Nc1ccc(CN2CCCCC2)cc1 | 138 | – | 89 | – | 38 | Ratio IC50 [7]: 2; Ratio IC50 [8]: 4 |
| COc1ccc(-c2ccc(CCCNc3ccc(CN4CCC(NC(C)=O)CC4)cc3)nn2)cc1 | > 10000 | 7 | > 10000 | 100 | 10 | Tmax [19]: 1.5 h; AUC/dose [20]: 476 nM·h; pKa [6]: 8.8; MRT [21]: 4 h; Cmax/dose [22]: 83 nM |
| COc1ccc(-c2ccc(CCCNc3ccc(CN4CCCCC4)cc3)nn2)cc1 | 1810 | – | 962 | 6.25 | 7 | pKa [6]: 9 |
| OC1CCN(Cc2ccc(OCCCc3ccc(-c4ccc(F)cc4)nn3)cc2)CC1 | 242 | – | > 10000 | – | 186 | – |
| O=C(COc1ccc(-c2ccc(Cl)cc2)cc1)Nc1ccc(CN2CCCCC2)cc1 | 91 | – | 446 | – | 94 | Ratio IC50 [7]: 5; Ratio IC50 [8]: 1 |
| N#Cc1ccc(-c2ccc(CCCNc3ccc(CN4CCCCC4)cc3)nn2)cc1 | 1460 | – | 1920 | – | – | – |
| COc1ccc(-c2ccc(CCCNc3ccc(CN4CCCC4)cc3)nn2)cc1 | 4540 | – | 1860 | – | 95 | – |
| CN(C(=O)/C=C/c1ccc(-c2ccc(Cl)cc2)cc1)c1ccc(CN2CCCCC2)cc1 | 362 | – | 625 | – | 634 | Ratio IC50 [7]: 1; Ratio IC50 [8]: 1 |
